Test results: ChEMBL document CHEMBL3880428, “Sulfonamide derivative having PGD2 receptor antagonistic activity” (2012)

Tests used:
Assay type in all cases: cell-based
HEK293 [1] = assay: Selectivity ratio of IC50 for PGD2 receptor in human platelets to IC50 for human EP1 receptor expressed in HEK293 cells by cAMP accumulation assay
HEK293 [2] = assay: Selectivity ratio of IC50 for PGD2 receptor in human platelets to IC50 for human EP2 receptor expressed in HEK293 cells by cAMP accumulation assay
HEK293 [3] = assay: Selectivity ratio of IC50 for PGD2 receptor in human platelets to IC50 for human EP3 receptor expressed in HEK293 cells by cAMP accumulation assay
HEK293 [4] = assay: Selectivity ratio of IC50 for PGD2 receptor in human platelets to IC50 for human EP4 receptor expressed in HEK293 cells by cAMP accumulation assay
HEK293 [5] = assay: Selectivity ratio of IC50 for PGD2 receptor in human platelets to IC50 for human FP receptor expressed in HEK293 cells by cAMP accumulation assay
HEK293 [6] = assay: Selectivity ratio of IC50 for PGD2 receptor in human platelets to IC50 for human TP receptor expressed in HEK293 cells by cAMP accumulation assay
HEK293 [7] = assay: Selectivity ratio of IC50 for PGD2 receptor in human platelets to IC50 for human IP receptor expressed in HEK293 cells by cAMP accumulation assay

Measured: Ratio IC50

CC(C)OC(=O)Nc1ccc(N2CCN(S(=O)(=O)c3ccc(OC(C)C)cc3)CC2)cc1OCC(=O)O
> 20: HEK293 [1] | HEK293 [2] | HEK293 [3] | HEK293 [4] | HEK293 [5] | HEK293 [6] | HEK293 [7]

CC(C)Oc1ccc(S(=O)(=O)N2CCN(c3ccc(Cl)c(OCC(=O)O)c3)CC2)cn1
> 20: HEK293 [1] | HEK293 [2] | HEK293 [3] | HEK293 [4] | HEK293 [5] | HEK293 [6] | HEK293 [7]

CC(C)Oc1ccc(S(=O)(=O)N2CCN(c3ccc(NC(=O)c4ccno4)c(OCC(=O)O)c3)CC2)cc1
> 20: HEK293 [1] | HEK293 [2] | HEK293 [3] | HEK293 [4] | HEK293 [5] | HEK293 [6] | HEK293 [7]

CC(C)Oc1ccc(S(=O)(=O)N2CCN(c3ccc(-c4nccs4)c(OCC(=O)O)c3)CC2)cc1
> 20: HEK293 [1] | HEK293 [2] | HEK293 [3] | HEK293 [4] | HEK293 [5] | HEK293 [6] | HEK293 [7]

CC(C)Oc1ccc(S(=O)(=O)N2CCN(c3ccc(C(=O)NCc4ccccn4)c(OCC(=O)O)c3)CC2)cc1
> 20: HEK293 [1] | HEK293 [2] | HEK293 [3] | HEK293 [4] | HEK293 [5] | HEK293 [6] | HEK293 [7]

CNC(=O)c1ccc(N2CCN(S(=O)(=O)c3ccc(OC(C)C)cc3)CC2)cc1OCC(=O)O
> 20: HEK293 [1] | HEK293 [2] | HEK293 [3] | HEK293 [4] | HEK293 [5] | HEK293 [6] | HEK293 [7]

CC(C)Oc1ccc(S(=O)(=O)N2CCN(c3ccc(NC(=O)c4cccnc4)c(OCC(=O)O)c3)CC2)cc1
> 20: HEK293 [1] | HEK293 [2] | HEK293 [3] | HEK293 [4] | HEK293 [5] | HEK293 [6] | HEK293 [7]

CCCNC(=O)c1ccc(N2CCN(S(=O)(=O)c3ccc(OC(C)C)cc3)CC2)cc1OCC(=O)O
> 20: HEK293 [1] | HEK293 [2] | HEK293 [3] | HEK293 [4] | HEK293 [5] | HEK293 [6] | HEK293 [7]

CC(C)Oc1ccc(S(=O)(=O)N2CCN(c3ccc(Cl)c(OCC(=O)O)c3)CC2)cc1
> 20: HEK293 [1] | HEK293 [2] | HEK293 [3] | HEK293 [4] | HEK293 [5] | HEK293 [6] | HEK293 [7]

CC(C)Oc1ccc(S(=O)(=O)N2CCN(c3ccc(Cl)c(/C=C/C(=O)O)c3)CC2)cc1
> 20: HEK293 [1] | HEK293 [2] | HEK293 [3] | HEK293 [4] | HEK293 [5] | HEK293 [6] | HEK293 [7]

CC(C)Oc1ccc(S(=O)(=O)N2CCN(c3cc(OCC(=O)O)cc(-c4ccoc4)c3)CC2)cc1
> 20: HEK293 [1] | HEK293 [2] | HEK293 [3] | HEK293 [4] | HEK293 [5] | HEK293 [6] | HEK293 [7]

CC(C)Oc1ccc(S(=O)(=O)N2CCN(c3ccc(C(=O)NCc4ccco4)c(OCC(=O)O)c3)CC2)cc1
> 20: HEK293 [1] | HEK293 [2] | HEK293 [3] | HEK293 [4] | HEK293 [5] | HEK293 [6] | HEK293 [7]

CC(C)Oc1ccc(S(=O)(=O)N2CCN(c3ccc(NC(=O)c4ccco4)c(OCC(=O)O)c3)CC2)cc1
> 20: HEK293 [1] | HEK293 [2] | HEK293 [3] | HEK293 [4] | HEK293 [5] | HEK293 [6] | HEK293 [7]

CC(C)Oc1ccc(S(=O)(=O)N2CCC(c3ccc(Cl)c(OCC(=O)O)c3)CC2)cc1
> 20: HEK293 [1] | HEK293 [2] | HEK293 [3] | HEK293 [4] | HEK293 [5] | HEK293 [6] | HEK293 [7]

CC(C)Oc1ccc(S(=O)(=O)N2CCN(c3ccc(Br)c(OCC(=O)O)n3)CC2)cc1
> 20: HEK293 [1] | HEK293 [2] | HEK293 [3] | HEK293 [4] | HEK293 [5] | HEK293 [6] | HEK293 [7]

CC(C)Oc1ccc(S(=O)(=O)N2CCN(c3ccc(C(=O)Nc4nc5ccccc5[nH]4)c(OCC(=O)O)c3)CC2)cc1
> 20: HEK293 [1] | HEK293 [2] | HEK293 [3] | HEK293 [4] | HEK293 [5] | HEK293 [6] | HEK293 [7]

CC(C)Oc1ccc(S(=O)(=O)N2CCN(c3ccc(Oc4ccccc4)c(OCC(=O)O)c3)CC2)cc1
> 20: HEK293 [1] | HEK293 [2] | HEK293 [3] | HEK293 [4] | HEK293 [5] | HEK293 [6] | HEK293 [7]

CC(C)Oc1ccc(S(=O)(=O)N2CCN(c3ccc(C(=O)Nc4nccs4)c(OCC(=O)O)c3)CC2)cc1
> 20: HEK293 [1] | HEK293 [2] | HEK293 [3] | HEK293 [4] | HEK293 [5] | HEK293 [6] | HEK293 [7]

CC(C)Oc1ccc(S(=O)(=O)N2CCN(c3cc(OCC(=O)O)cc(C(F)(F)F)c3)CC2)cc1
> 20: HEK293 [1] | HEK293 [2] | HEK293 [3] | HEK293 [4] | HEK293 [5] | HEK293 [6] | HEK293 [7]
